Test system: patients with DSM-III-R or DSM-IV diagnoses of SCZ refractory or intolerant to conventional antipsychotics
Assay: Clozapine response after 6 months treatment (% score change on BPRS, BPOS, BNEG) by SLC1A1 genotype/haplotype
Assay type: in vivo, human
Conditions: 6 months clozapine
From the text: Effect of 5 Single Nucleotide Polymorphisms (SNPs) Across the SLC1A1 Gene on Clozapine (CZ) Response After 6 Months Treatment in Two Distinct Schizophrenic Populations (Caucasian and African-American) Refractory or Intolerant to Conventional Antipsychotics.
97 patients (73 Caucasians and 24 African-Americans) with DSM-III-R or DSM-IV diagnoses of SCZ assessed from Case Western Reserve University, Cleveland, Ohio.
No significant differences were observed between Caucasians and African-Americans in terms of gender ratio (P=0.234) or mean age (P=0.561). Almost all subjects met criteria for treatment refractoriness or intolerance to typical antipsychotic therapy as defined by Kane et al (1988). Patients underwent a washout period of 2 to 4 weeks during which, unless clinically necessary, they received no medications before starting clozapine (CZ). CZ treatment was continued for a minimum of 6 months during which patients were evaluated prospectively. CZ blood levels were monitored throughout course of treatment to ascertain compliance,
Treatment response is evaluated as a percentage (%) score change from baseline using the 18-item Brief Psychiatric Rating Scale (BPRS), a 4-item positive symptom subscale (BPOS) and 3-item negative symptom subscale (BNEG)—after 6 months of clozapine treatment. % score change=(6 months score−baseline score)/Baseline score. A negative value of % score change in each scale would indicate an improvement in symptoms measured by that particular scale.
Blood samples were collected from clinical sites and sent to the Centre for Addiction and Mental Health (CAMH) in Toronto, ON, Canada—where genotyping of patients' DNA was performed by 5′-exonuclease fluorescence assays. The 5 informative SNPs (minor allele frequency>20%) spanning SLC1A1 were chosen based on location (see Table 1)—with 2 in coding regions and 3 from different intronic regions and different haplotype blocks. Laboratory staff was blind to the psychiatric ratings.
Within each ethnic population, individual SNP analyses of % score changes (continuous data) were performed using Analysis of Variance (ANOVA) in STATA ver7.0. Haplotype analysis of unphased quantitative data was performed using QTPHASE (Dudbridge, 2003).

Compound: CN1CCN(C2=Nc3cc(Cl)ccc3Nc3ccccc32)CC1 [clozapine]
- Mean BPOS % score change (haplotype 1-1-1 in SNP window 1-2-3, Caucasians and African-Americans combined): −0.198
- Mean BNEG % score change (haplotype 1-1 in SNP window 4-5, African-Americans): −0.379
- Mean BNEG % score change (haplotype 1-2-1 in SNP window 3-4-5, African-Americans): 0.086
- Mean BNEG % score change (haplotype 1-2 in SNP window 3-4, African-Americans): 0.143
- Mean BNEG % score change (haplotype 2-1-1 in SNP window 2-3-4, Caucasians): 0.295
- Mean BNEG % score change (haplotype 2-1-1 in SNP window 3-4-5, African-Americans): −0.379
- Mean BNEG % score change (haplotype 2-1 in SNP window 3-4, African-Americans): −0.341
- Mean BNEG % score change (haplotype 2-1 in SNP window 4-5, African-Americans): 0.107
- Mean BNEG % score change (haplotype 2-2-1 in SNP window 1-2-3, Caucasians and African-Americans combined): 0.592
- Mean BNEG % score change (haplotype 2-2-1 in SNP window 1-2-3, Caucasians): 0.889
- Mean BNEG % score change (rs301434 genotype C/C, Caucasians & African-Americans combined): −0.115
- Mean BPRS % score change (rs301434 genotype C/C, Caucasians, negative = improvement): −0.248
- Mean BNEG % score change (rs301434 genotype T/C, Caucasians & African-Americans combined): −0.136
- Mean BPRS % score change (rs301434 genotype T/C, Caucasians, negative = improvement): −0.310
- Mean BNEG % score change (rs301434 genotype T/T, Caucasians & African-Americans combined): 0.636
- Mean BPRS % score change (rs301434 genotype T/T, Caucasians, negative = improvement): 1.310
- Mean BNEG % score change (rs1980943 genotype A/A, African-Americans, negative = improvement): 3.000
- Mean BNEG % score change (rs1980943 genotype G/A, African-Americans, negative = improvement): −0.378
- Mean BNEG % score change (rs1980943 genotype G/G, African-Americans, (6 months score-baseline score)/baseline score, negative = improvement): 0.067
